Results as given in patent US20130210167A1, “IMMUNOASSAY FOR PYRROLIDINOPHENONES” (RANDOX LABORATORIES LIMITED, priority 2012, published 2013).
Counter-ions that a name gives are not always drawn.

Tested on: polyclonal antibody raised to Immunogen IV
Assay: Competitive biochip immunoassay of pyrrolidinophenones and potential cross-reactants (Evidence Investigator)
Assay type: binding, sheep
Conditions: not given

Row | Molecule | % Cross-Reactivity | % Cross-reactivity | binding of antibodies of the invention (in words)
1 | COc1cc(CCN)cc(OC)c1OC [Mescaline HCl] | <1% | – | –
2 | COC(=O)[C@@H]1C[C@H](OC(C)=O)C(=O)[C@H]2[C@@]1(C)CC[C@H]1C(=O)O[C@H](c3ccoc3)C[C@]21C [Salvinorin A] | <1% | – | –
3 | COc1ccc2c3c1O[C@H]1C(=O)CC[C@@]4(O)[C@@H](C2)N(C)CC[C@]314 [Oxycodone] | – | <1% | –
4 | CCCCCn1cc(C(=O)Cc2ccccc2OC)c2ccccc21 [JWH-250] | <1% | – | –
5 | Cl.Clc1cccc(N2CCNCC2)c1 [1-(3-Chlorophenyl)piperazine HCl] | <1% | – | –
6 | CCCC(C(=O)c1ccc2c(c1)OCO2)N1CCCC1.Cl (racemic) [(RS)-1-(Benzo[d][1,3]dioxol-5-yl)-2-(pyrrolidin-1-yl)pentanone HCl] | 100% | 100% | –
7 | Dihydroxymephedrone HCl | – | <1% | –
8 | CN1CCN(Cc2ccccc2)CC1.Cl.O [1-Benzyl-4-methylpiperazine HCl monohydrate] | – | <1% | –
9 | CCC(=O)C(CC(C)N(C)C)(c1ccccc1)c1ccccc1 (stereo not shown) [Methadone] | – | <1% | –
10 | Oc1ccccc1O [1,2 Dihydroxybenzene (Catechol), 1,2 Dihydroxybenzene] | – | <1% | –
11 | CN1CCCC1c1cccnc1 (single isomer, unassigned; (-)) [(−)-Nicotine] | – | <1% | –
12 | CNC(C)C(=O)c1ccc(C)cc1 (stereo not shown) [Mephedrone HCl] | <1% | – | –
13 | C[C@H](N)Cc1ccccc1 [D-Amphetamine] | <1% | – | –
14 | COc1cccc(C2(O)CCCCC2CN(C)C)c1 (stereo not shown) [Tramadol HCl] | – | <1% | –
15 | Prolatine | – | <1% | –
16 | NCCc1ccccc1.O=S(=O)(O)O [Phenethylamine sulphate] | – | <1% | –
17 | O=C(CCCN1CCC(O)(c2ccc(Cl)cc2)CC1)c1ccc(F)cc1 [Haloperidol] | – | <1% | –
18 | CNC(C)C(=O)c1ccc2c(c1)OCO2 (stereo not shown) [Methylone HCl] | – | <1% | –
19 | c1ccc(CN2CCNCC2)cc1 [1-Benzylpiperazine] | <1% | – | –
20 | CN[C@H]1CC[C@@H](c2ccc(Cl)c(Cl)c2)c2ccccc21 [Sertraline HCl] | – | <1% | –
21 | COc1ccc2c(c1)[C@]13CCCC[C@@H]1[C@H](C2)N(C)CC3 [Dextromethorphan hydrobromide monohydrate] | – | <1% | –
22 | CNCCCC1(c2ccc(F)cc2)OCc2cc(C#N)ccc21 (stereo not shown) [Norescitalopram] | – | <1% | –
23 | CNC(C)Cc1ccc2c(c1)OCO2 (racemic) [(RS)-1-(Benzo[d][1,3]dioxol-5-yl)-N-methylpropan-2-amine] | <1% | – | –

Row | Molecule | % Cross-Reactivity | % Cross-reactivity | binding of antibodies of the invention (in words)
24 | (−)-11-nor-9-Carboxy-delta9-THC | – | <1% | –
25 | Cl.c1ccc(C2(N3CCCCC3)CCCCC2)cc1 [1-(1-phenylcyclohexyl)piperidine) HCl] | – | <1% | –
26 | CCCC(C(=O)c1ccc(C)cc1)N1CCCC1 (racemic) [Pyrovalerone HCl, (RS)-1-(4-methylphenyl)-2-(1-pyrrolidinyl)pentan-1-one] | – | 44.4% | –
27 | CCOC(=O)C1(c2ccccc2)CCNCC1 [Normeperidine] | – | <1% | –
28 | C=CCN(CC=C)CCc1c[nH]c2ccc(OC)cc12 [N,N-diallyl-5-methoxytryptamine] | – | <1% | –
29 | CCCC(C(=O)c1ccc2ccccc2c1)N1CCCC1.Cl (racemic) [(RS)-1-(2-Naphthyl)-2-(pyrrolidin-l-yl)pentanone HCl] | 44% | – | –
30 | CCC(C(=O)c1ccc2c(c1)OCO2)N1CCCC1 (racemic) [(RS)-1-(Benzo[d][1,3]dioxol-5-yl)-2-(pyrrolidin-1-yl)butanone HCl] | 192% | – | –
31 | Cl.O=c1n(CCCN2CCN(c3cccc(Cl)c3)CC2)nc2ccccn12 [Trazadone HCl] | – | <1% | –
32 | Cc1ccc(C(=O)C(C)N)cc1.Cl (stereo not shown) [Nor-mephedrone HCl] | – | <1% | –
33 | COc1ccc2c3c1O[C@H]1C(=O)CC[C@H]4[C@@H](C2)N(C)CC[C@]314 [Hydrocodone] | – | <1% | –
34 | CC(N)Cc1ccc2c(c1)OCO2 (racemic) [(RS)-1-(benzo[d][1,3]dioxol-5-yl)propan-2-amine] | <1% | – | –
35 | CCN(CC)C(=O)[C@@H]1C=C2c3cccc4[nH]cc(c34)C[C@H]2N(C)C1 [LSD] | – | <1% | –
36 | CCN(C(C)=O)c1cccc(-c2ccnc3c(C#N)cnn23)c1 [Zaleplon] | – | <1% | –
37 | CC(C)Cc1ccc(C(C)C(=O)O)cc1 (stereo not shown) [Ibuprofen] | – | <1% | –
38 | COc1cc(CC(C)N)cc(OC)c1OC.Cl (racemic) [(+/−)-3,4,5-Trimethoxyamphetamine hydrochloride] | – | <1% | –
39 | CCCC(NC)C(=O)c1ccccc1.Cl (stereo not shown) [Pentedrone HCl] | – | <1% | –
40 | CCC(=O)OC(Cc1ccccc1)(c1ccccc1)C(C)CNC.O=C(O)/C=C\C(=O)O (single isomer, unassigned; (+)) [(+)-Norpropoxyphene maleate] | – | <1% | –
41 | O=C1Nc2ccc(Cl)cc2C(c2ccccc2Cl)=NC1O (stereo not shown) [Lorazepam] | – | <1% | –
42 | Cc1ccccc1-n1c(C)nc2ccccc2c1=O [Methaqualone] | – | <1% | –
43 | Cl.NC1(c2ccccc2Cl)CCCCC1=O (racemic) [(±)-Norketamine HCl] | – | <1% | –
44 | O=C(O)c1ccccc1O [Salicylic acid] | – | <1% | –
45 | CNC(C)C(=O)c1ccc(F)cc1.Cl (stereo not shown) [Flephedrone HCl] | – | <1% | –
46 | CN[C@@H](C)[C@@H](O)c1ccccc1.Cl [(+)-Pseudoephedrine HCl] | <1% | – | –

Row | Molecule | % Cross-Reactivity | % Cross-reactivity | binding of antibodies of the invention (in words)
47 | CC(=O)Nc1ccc(O)cc1 [Acetaminophen] | – | <1% | –
48 | CCCCC(C(=O)c1ccc(C)cc1)N1CCCC1.Cl (racemic) [(RS)-1-(4-Methylphenyl)-2-(pyrrolidin-1-yl)hexanone HCl] | – | 48.4% | –
49 | CCN(CC)C(C)C(=O)c1ccccc1 (stereo not shown) [Diethylpropion HCl] | – | <1% | –
50 | CNCCC=C1c2ccccc2CCc2ccccc21 [Nortriptyline HCl] | – | <1% | –
51 | (−)-Delta9-THC | – | <1% | –
52 | CNCCC(Oc1ccc(C(F)(F)F)cc1)c1ccccc1 (stereo not shown) [Fluoxetine HCl] | – | <1% | –
53 | CCCC(NC)C(=O)c1ccc2c(c1)OCO2.Cl (stereo not shown) [Pentylone HCl] | – | 17.4% | able to bind
54 | Cc1ccc(-c2nc3ccc(C)cn3c2CC(=O)N(C)C)cc1 [Zolpidem tartrate] | – | <1% | –
55 | CN1CCN(C(=O)OC2c3nccnc3C(=O)N2c2ccc(Cl)cn2)CC1 (stereo not shown) [Zopiclone] | – | <1% | –
56 | CCO[C@@H]1O[C@H](C(=O)O)[C@@H](O)[C@H](O)[C@H]1O [Ethyl-glucuronide] | – | <1% | –
57 | CCCC(C)(COC(N)=O)COC(N)=O [Meprobamate] | – | <1% | –
58 | CC(C(=O)c1ccc2c(c1)OCO2)N1CCCC1.Cl (racemic) [(RS)-1-(Benzo[d][1,3]dioxol-5-yl)-2-(pyrrolidin-1-yl)propanone HCl] | 12% | – | –
59 | CC(NC(C)(C)C)C(=O)c1cccc(Cl)c1 (stereo not shown) [Bupropion HCl] | – | <1% | –
60 | CC(=O)Oc1ccc2c3c1O[C@H]1[C@@H](OC(C)=O)C=C[C@H]4[C@@H](C2)N(C)CC[C@@]341 [Heroin] | – | <1% | –
61 | CN[C@@H](C)Cc1ccccc1 [Methamphetamine HCl] | <1% | – | –
62 | COC(=O)C(c1ccccc1)C1CCCCN1 (stereo not shown) [Methylphenidate HCl] | – | <1% | –
63 | CCC(NC)C(=O)c1ccc2c(c1)OCO2.Cl (stereo not shown) [Butylone HCl] | – | 11.4% | able to bind
64 | CN1C(=O)CC[C@H]1c1cccnc1 [(−)-Cotinine] | – | <1% | –
65 | CN1C(=O)CN=C(c2ccccc2F)c2cc(N)ccc21 [7-NH Flunitrazepam] | – | <1% | –
66 | CCCCCn1cc(C(=O)c2cccc3ccccc23)c2ccccc21 [JWH-018] | <1% | – | –
67 | CCC(C(=O)c1ccc(C)cc1)N1CCCC1.Cl (racemic) [(RS)-1-(4-Methylphenyl)-2-(pyrrolidin-l-yl)butanone HCl] | 34% | – | –

Same assay, conditions: Table 2, further cross-reactivity results; competition with Hapten-A HRP conjugate

Row | Molecule | % Cross-reactivity
68 | O=C(O)[C@H]1O[C@@H](OCC(Cl)(Cl)Cl)[C@H](O)[C@@H](O)[C@@H]1O [Urochloralic acid] | <1%
69 | O=C(CN1CCCC1)c1ccccc1 [1-Phenyl-2(1-pyrrolidinyl)ethanone] | <1%
70 | O=C(O)c1c[nH]c2ccccc12 [Indole-3-carboxylic acid] | <1%
